Source: US11207325B2, “Triazolopyrimidine compounds and uses thereof” (Novartis AG, priority 2014, dated 2021)

System: H3K27 methylation in G401 cell
Experiment: ELISA (H3K27 methylation) assay
Type: cell-based
Conditions: Homo sapiens, G-401; ELISA Qualified assay (H3K27 methylation); read-out: (c) IC50 (μM), ELISA Qualified
Text: ELISA (H3K27 Methylation) Assay

| IC50 | Structure (SMILES) |
| --- | --- |
| 0.12 µM | Clc1ccncc1-c1cnc(NCc2cccc3c2CCO3)n2cnnc12 [Example 50, 8-(4-chloropyridin-3-yl)-N-((2,3-dihydrobenzofuran-4-yl)methyl)-[1,2,4]triazolo[4,3-c]pyrimidin-5-amine] |
| 0.238 µM | CN(C)c1ncc(-c2cnc(NCc3cccc4c3CCO4)n3cnnc23)cn1 [Example 88, N-((2,3-dihydrobenzofuran-4-yl)methyl)-8-(2-(dimethylamino)pyrimidin-5-yl)-[1,2,4]triazolo[4,3-c]pyrimidin-5-amine] |
| 0.0061 µM | CCOc1ncc(-c2cnc(NCc3c(F)ccc4c3CCO4)n3cnnc23)c(C)n1 [Example 226, 8-(2-ethoxy-4-methylpyrimidin-5-yl)-N-((5-fluoro-2,3-dihydrobenzofuran-4-yl)methyl)-[1,2,4]triazolo[4,3-c]pyrimidin-5-amine] |
| 0.0783 µM | CN1CCN(c2ccc(-c3cnc(NCc4cccc5c4CCO5)n4cnnc34)cn2)CC1 [Example 20, N-((2,3-dihydrobenzofuran-4-yl)methyl)-8-(6-(4-methylpiperazin-1-yl)pyridin-3-yl)-[1,2,4]triazolo[4,3-c]pyrimidin-5-amine] |
| 0.0232 µM | Cn1cc(-c2cnc(NCc3c(F)ccc4c3CCO4)n3cnnc23)c(C(F)(F)F)n1 [Example 170, N-((5-fluoro-2,3-dihydrobenzofuran-4-yl)methyl)-8-(1-methyl-3-(trifluoromethyl)-1H-pyrazol-4-yl)-[1,2,4]triazolo[4,3-c]pyrimidin-5-amine] |
| 0.0152 µM | Cc1cc(C2CC2)ncc1-c1cnc(NCc2c(F)ccc3c2CCO3)n2cnnc12 [Example 173, 8-(6-cyclopropyl-4-methylpyridin-3-yl)-N-((5-fluoro-2,3-dihydrobenzofuran-4-yl)methyl)-[1,2,4]triazolo[4,3-c]pyrimidin-5-amine] |
| 0.135 µM | NC(=O)c1ccccc1-c1cnc(NCc2c(F)ccc3c2CCO3)n2cnnc12 [Example 122, 2-(5-(((5-fluoro-2,3-dihydrobenzofuran-4-yl)methyl)amino)-[1,2,4]triazolo[4,3-c]pyrimidin-8-yl)benzamide] |
| 0.22 µM | CN(C)C(=O)c1ccc(-c2cnc(NCc3cccc4c3CCO4)n3cnnc23)cc1 [Example 42, 4-(5-(((2,3-dihydrobenzofuran-4-yl)methyl)amino)-[1,2,4]triazolo[4,3-c]pyrimidin-8-yl)-N,N-dimethylbenzamide] |
| 0.0144 µM | CN(C)Cc1ccc(-c2cnc(NCc3cccc4c3CCO4)n3cnnc23)cc1 [Example 11, N-((2,3-dihydrobenzofuran-4-yl)methyl)-8-(4-((dimethylamino)methyl)phenyl)-[1,2,4]triazolo[4,3-c]pyrimidin-5-amine] |
| 0.14 µM | CNc1cc(F)c(-c2cnc(NCc3cccc4c3CCO4)n3cnnc23)cn1 [Example 111, N-((2,3-dihydrobenzofuran-4-yl)methyl)-8-(4-fluoro-6-(methylamino)pyridin-3-yl)-[1,2,4]triazolo[4,3-c]pyrimidin-5-amine] |
| 0.0176 µM | CS(=O)(=O)c1ccc(-c2cnc(NCc3cccc4c3CCO4)n3cnnc23)cc1 [Example 12, N-((2,3-dihydrobenzofuran-4-yl)methyl)-8-(4-(methylsulfonyl)phenyl)-[1,2,4]triazolo[4,3-c]pyrimidin-5-amine] |
| 0.0252 µM | COc1nccc(-c2cnc(NCc3c(F)ccc4c3CCO4)n3cnnc23)c1C [Example 230, N-((5-fluoro-2,3-dihydrobenzofuran-4-yl)methyl)-8-(2-methoxy-3-methylpyridin-4-yl)-[1,2,4]triazolo[4,3-c]pyrimidin-5-amine] |
| 0.0027 µM | CCc1ccc(-c2cnc(NCc3c(F)ccc4c3CCO4)n3cnnc23)c(C)n1 [Example 229, 8-(6-ethyl-2-methylpyridin-3-yl)-N-((5-fluoro-2,3-dihydrobenzofuran-4-yl)methyl)-[1,2,4]triazolo[4,3-c]pyrimidin-5-amine] |
| 0.0025 µM | Cc1nn(CCO)cc1-c1cnc(NCc2c(F)ccc3c2CCO3)n2cnnc12 [Example 190, 2-(4-(5-(((5-fluoro-2,3-dihydrobenzofuran-4-yl)methyl)amino)-[1,2,4]triazolo[4,3-c]pyrimidin-8-yl)-3-methyl-1H-pyrazol-1-yl)ethanol] |
| 0.0265 µM | CC(=O)NCc1ccc(-c2cnc(NCc3c(F)ccc4c3CCO4)n3cnnc23)cn1 [Example 171, N-((5-(5-(((5-fluoro-2,3-dihydrobenzofuran-4-yl)methyl)amino)-[1,2,4]triazolo[4,3-c]pyrimidin-8-yl)pyridin-2-yl)methyl)acetamide] |
| 0.0131 µM | CN(C)C(=O)c1ccc(-c2cnc(NCc3c(F)ccc4c3CCO4)n3cnnc23)cc1 [Example 55, 4-(5-(((5-fluoro-2,3-dihydrobenzofuran-4-yl)methyl)amino)-[1,2,4]triazolo[4,3-c]pyrimidin-8-yl)-N,N-dimethylbenzamide] |
| 0.0124 µM | Cc1c(-c2cnc(NCc3c(F)ccc4c3CCO4)n3cnnc23)ccnc1F [Example 180, N-((5-fluoro-2,3-dihydrobenzofuran-4-yl)methyl)-8-(2-fluoro-3-methylpyridin-4-yl)-[1,2,4]triazolo[4,3-c]pyrimidin-5-amine] |
| 0.0014 µM | Cc1nc(CN(C)C)ccc1-c1cnc(NCc2c(F)ccc3c2CCO3)n2cnnc12 [Example 223] |
| 0.175 µM | CN(C)c1ccc(-c2cnc(NCc3cccc4c3CCO4)n3cnnc23)cn1 [Example 61, N-((2,3-dihydrobenzofuran-4-yl)methyl)-8-(6-(dimethylamino)pyridin-3-yl)-[1,2,4]triazolo[4,3-c]pyrimidin-5-amine] |
| 1.42 µM | CS(=O)(=O)CCCOc1cncc(-c2cnc(NCc3cccc4c3CCO4)n3cnnc23)c1 [Example 98, N-((2,3-dihydrobenzofuran-4-yl)methyl)-8-(5-(3-(methylsulfonyl)propoxy)pyridin-3-yl)-[1,2,4]triazolo[4,3-c]pyrimidin-5-amine] |
| 0.406 µM | Cn1cc(-c2cnc(NCc3cccc4c3CCO4)n3cnnc23)cn1 [Example 25, N-((2,3-dihydrobenzofuran-4-yl)methyl)-8-(1-methyl-1H-pyrazol-4-yl)-[1,2,4]triazolo[4,3-c]pyrimidin-5-amine] |
| 0.161 µM | O=CN1CCN(CCc2ccc(-c3cnc(NCc4cccc5c4CCO5)n4cnnc34)cn2)CC1 [Example 107, 4-(2-(5-(5-(((2,3-dihydrobenzofuran-4-yl)methyl)amino)-[1,2,4]triazolo[4,3-c]pyrimidin-8-yl)pyridin-2-yl)ethyl)piperazine-1-carbaldehyde] |
| 0.389 µM | CN(C)c1cc(F)c(-c2cnc(NCc3cccc4c3CCO4)n3cnnc23)cn1 [Example 112, N-((2,3-dihydrobenzofuran-4-yl)methyl)-8-(6-(dimethylamino)-4-fluoropyridin-3-yl)-[1,2,4]triazolo[4,3-c]pyrimidin-5-amine] |
| 0.003 µM | Cn1cc(-c2cnc(NCc3c(F)ccc4c3CCO4)n3cnnc23)c(C(F)F)n1 [Example 200, 8-(3-(difluoromethyl)-1-methyl-1H-pyrazol-4-yl)-N-((5-fluoro-2,3-dihydrobenzofuran-4-yl)methyl)-[1,2,4]triazolo[4,3-c]pyrimidin-5-amine] |
| 0.298 µM | CS(=O)(=O)CCOc1ccc(-c2cnc(NCc3cccc4c3CCO4)n3cnnc23)cc1 [Example 75, N-((2,3-dihydrobenzofuran-4-yl)methyl)-8-(4-(2-(methylsulfonyl)ethoxy)phenyl)-[1,2,4]triazolo[4,3-c]pyrimidin-5-amine] |
